Like-named read-outs stand apart in the source and are kept apart here.
Assays:
Assay type in all cases: cell-based
PLK1 = target: T1, PLK1 (Homo sapiens, UniProt P53350); assay: Western blot, protein degradation (DC50)
T1 construct: endogenous in cells
Experimental: (§1) Cells were treated with the compound for a period of time, after that the cells were collected by centrifugation. After washing with PBS, the cells were lysed by adding RIPA buffer; the cell lysate were added to the loading buffer and then appropriate volume were taken and slowly added to the corresponding wells of the gel plate, and run the SDS-PAGE gel (4%-12%). After running the gel, transferred to the PVDF membrane and sealed with 5% skimmed milk powder at room temperature for 1 hour. The membrane was placed in the primary antibody diluted with 5% skimmed milk powder and shaked slowly overnight at 4° C. After incubation with primary antibody, the membrane was washed 3 times using a TBST shaker; added secondary antibody diluted with 5% skimmed milk powder corresponding to the primary antibody, and shaked slowly at room temperature for 1 hour. After incubation with secondary antibody, the membrane was washed 3 times using the TBST shaker again. The PVDF membrane was flatted in the cassette, the strip was evenly infiltrated with ECL developer solution, and placed in ChemDoc XRS+ gel imager for taking pictures. The intensity of protein bands was analyzed quantitatively using ImageJ software.

BRD4 = target: T2, BRD4 (Homo sapiens, UniProt O60885); assay: Western blot, protein degradation (DC50)
T2 construct: endogenous in cells
Experimental: as §1

[1] = tested on: Human Monocytic Leukemia MV4-11; assay: Cell proliferation experiment (Alarm blue, 72 h, EC50)
Summary of the method: (§2)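 Single-cell suspensions from log-phase cultures are plated, compound in complete medium is added at 5-fold dilution steps (two replicates each), and cells grow for 72 h. Viability is then measured as Alamar blue fluorescence, giving EC50 by sigmoidal fitting.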

[2] = tested on: Human Colon Cancer HCT-116; assay: as above; conditions: Homo sapiens, HCT-116; HCT116 cells
Summary of the method: as §2

[3] = Homo sapiens, MV4-11, MV4;11 cells
[4] = 24 h, western blot, read-out: PLK1 DC50 (24 h)
[5] = 24 h, western blot, read-out: BRD4 DC50 (24 h)
[6] = 6 h, western blot, read-out: PLK1 DC50 (6 h)
[7] = 6 h, western blot, read-out: BRD4 DC50 (6 h)

T1 sequence (P53350 whole entry): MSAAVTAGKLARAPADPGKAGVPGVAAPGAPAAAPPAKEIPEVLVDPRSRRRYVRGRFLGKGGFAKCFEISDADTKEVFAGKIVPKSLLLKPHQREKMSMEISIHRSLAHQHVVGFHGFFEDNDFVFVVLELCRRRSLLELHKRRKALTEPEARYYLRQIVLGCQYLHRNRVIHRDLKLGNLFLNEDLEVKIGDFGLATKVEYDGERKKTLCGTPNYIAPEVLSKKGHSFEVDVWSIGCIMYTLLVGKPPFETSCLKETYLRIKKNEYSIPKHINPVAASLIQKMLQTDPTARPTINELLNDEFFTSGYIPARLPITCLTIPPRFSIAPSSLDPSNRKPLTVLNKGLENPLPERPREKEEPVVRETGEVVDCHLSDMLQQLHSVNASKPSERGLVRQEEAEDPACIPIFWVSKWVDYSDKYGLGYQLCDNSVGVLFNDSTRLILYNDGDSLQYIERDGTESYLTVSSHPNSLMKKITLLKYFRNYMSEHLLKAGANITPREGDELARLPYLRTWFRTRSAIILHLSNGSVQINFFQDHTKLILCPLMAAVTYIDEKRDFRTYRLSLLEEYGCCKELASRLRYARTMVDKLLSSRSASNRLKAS

Compound | EC50 [1, 3] | EC50 [2] | further results
CC[C@@H]1C(=O)N(C)c2cnc(Nc3ccc(C(=O)NCCOCCOCCOCCC(=O)N[C@H](C(=O)N4C[C@H](O)C[C@H]4C(=O)NCc4ccc(-c5scnc5C)cc4)C(C)(C)C)cc3OC)nc2N1Cc1ccc(Br)cc1 [UB-180602] | – | – | DC50 (PLK1; 6 h, read-out: PLK1 DC50 (6 h)): > 1000 nM; DC50 (BRD4; 6 h, read-out: BRD4 DC50 (6 h)): > 1000 nM
O=C1CCC(N2Cc3c(NC(=O)COCCNC(=O)[C@]4(Cc5cccc(Nc6nccs6)n5)CC[C@@H](Oc5cccc(Cl)c5F)CC4)cccc3C2=O)C(=O)N1 (some centres unmarked) [UB-180577] | > 1000 nM | > 1000 nM | –
O=C1CCC(N2Cc3c(NC(=O)COCCOCCNC(=O)c4ccc(Nc5ncc6c(n5)-c5ccc(Cl)cc5C(c5c(F)cccc5F)=NC6)cc4)cccc3C2=O)C(=O)N1 (centres unmarked) [UB-180559] | 100 to 1000 nM | > 1000 nM | –
CC[C@@H]1C(=O)N(C)c2cnc(Nc3ccc(C(=O)NCCCNCCCCCC(=O)Nc4cccc5c4CN(C4CCC(=O)NC4=O)C5=O)cc3OC)nc2N1C1CCCC1 (some centres unmarked) [UB-180659] | – | – | EC50 ([1]; Homo sapiens, MV4;11 cells): 10 to 100 nM; DC50 (PLK1; [4]): 100 to 1000 nM; DC50 (BRD4; [5]): < 10 nM
Cc1sc2c(c1C)C(c1ccc(Cl)cc1)=N[C@@H](CC(=O)NCCCNCCCCCCC(=O)Nc1cccc3c1CN(C1CCC(=O)NC1=O)C3=O)c1nnc(C)n1-2 (some centres unmarked) [UB-180629] | 100 to 1000 nM | > 1000 nM | –
O=C1CCC(N2Cc3c(NC(=O)COCCCCNC(=O)c4ccc(Nc5ncc6c(n5)-c5ccc(Cl)cc5C(c5c(F)cccc5F)=NC6)cc4)cccc3C2=O)C(=O)N1 (centres unmarked) [UB-180503] | 100 to 1000 nM | 100 to 1000 nM | –
O=C1CCC(N2Cc3c(NC(=O)CCNC(=O)c4ccc(Nc5ncc6c(n5)-c5ccc(Cl)cc5C(c5c(F)cccc5F)=NC6)cc4)cccc3C2=O)C(=O)N1 (centres unmarked) [UB-180617] | > 1000 nM | > 1000 nM | –
CC[C@@H]1C(=O)N(C)c2cnc(Nc3ccc(C(=O)NCCNc4cccc5c4CN(C4CCC(=O)NC4=O)C5=O)cc3OC)nc2N1C1CCCC1 (some centres unmarked) [UB-180567] | 10 to 100 nM | – | DC50 (PLK1; [6]): > 1000 nM; DC50 (BRD4; [7]): > 1000 nM
O=C1CCC(N2Cc3c(NC(=O)CCCNC(=O)[C@]4(Cc5cccc(Nc6nccs6)n5)CC[C@@H](Oc5cccc(Cl)c5F)CC4)cccc3C2=O)C(=O)N1 (some centres unmarked) [UB-180574] | > 1000 nM | > 1000 nM | –
CC[C@@H]1C(=O)N(C)c2cnc(Nc3ccc(C(=O)NCCOCCOCCOCCNCCCC(=O)Nc4cccc5c4CN(C4CCC(=O)NC4=O)C5=O)cc3OC)nc2N1C1CCCC1 (some centres unmarked) [UB-180647] | – | > 1000 nM | EC50 ([1]; MV4;11 cells): 10 to 100 nM; DC50 (PLK1; [4]): 10 to 100 nM; DC50 (BRD4; [5]): < 10 nM
CC[C@@H]1c2c(C#N)ncn2-c2cnc(Nc3ccc(C(=O)NCCOCCOCCOCC(=O)Nc4cccc5c4C(=O)N(C4CCC(=O)NC4=O)C5=O)cc3OC)nc2N1Cc1ccc(Br)cc1 (some centres unmarked) [UB-180594] | – | – | DC50 (PLK1; 6 h, read-out: PLK1 DC50 (6 h)): > 1000 nM; DC50 (BRD4; 6 h, read-out: BRD4 DC50 (6 h)): > 1000 nM

Continued, in another order:

EC50 [1, 3] | EC50 [2] | Compound | further results
10 to 100 nM | – | CC[C@@H]1C(=O)N(C)c2cnc(Nc3ccc(C(=O)NCCCNc4cccc5c4C(=O)N(C4CCC(=O)NC4=O)C5=O)cc3OC)nc2N1C1CCCC1 (some centres unmarked) [UB-180579] | DC50 (PLK1; 6 h, read-out: PLK1 DC50 (6 h)): 100 to 1000 nM; DC50 (BRD4; 6 h, read-out: BRD4 DC50 (6 h)): 100 to 1000 nM
10 to 100 nM | – | CC[C@@H]1C(=O)N(C)c2cnc(Nc3ccc(C(=O)NC4CCN(CCNCCOCC(=O)Nc5cccc6c5CN(C5CCC(=O)NC5=O)C6=O)C4)cc3OC)nc2N1C1CCCC1 (some centres unmarked) [UB-180703] | DC50 (PLK1; [4]): 10 to 100 nM; DC50 (BRD4; [5]): < 10 nM
10 to 100 nM | 100 to 1000 nM | O=C1CCC(N2Cc3c(NC(=O)CCOCCOCCNC(=O)c4ccc(Nc5ncc6c(n5)-c5ccc(Cl)cc5C(c5c(F)cccc5F)=NC6)cc4)cccc3C2=O)C(=O)N1 (centres unmarked) [UB-180504] | –
10 to 100 nM | > 1000 nM | O=C1CCC(N2Cc3c(NC(=O)CCOCCCOCCOCCNC(=O)c4ccc(Nc5ncc6c(n5)-c5ccc(Cl)cc5C(c5c(F)cccc5F)=NC6)cc4)cccc3C2=O)C(=O)N1 (centres unmarked) [UB-180610] | –
< 10 nM | – | CC[C@@H]1C(=O)N(C)c2cnc(Nc3ccc(C(=O)NC4CCN(CCOCCNCC(=O)Nc5cccc6c5CN(C5CCC(=O)NC5=O)C6=O)CC4)cc3OC)nc2N1Cc1cnc(C)s1 (some centres unmarked) [UB-180745] | DC50 (PLK1; 6 h, read-out: PLK1 DC50 (nM) (6 h)): > 1000 nM; DC50 (PLK1; 24 h, read-out: PLK1 DC50 (nM) (24 h)): < 10 nM; DC50 (BRD4; 6 h, read-out: BRD4 DC50 (nM) (6 h)): < 10 nM; DC50 (BRD4; 24 h, read-out: BRD4 DC50 (nM) (24 h)): < 10 nM
< 10 nM | – | CC[C@@H]1C(=O)N(C)c2cnc(Nc3ccc(C(=O)NCCCNCCCCCCCC(=O)Nc4cccc5c4CN(C4CCC(=O)NC4=O)C5=O)cc3OC)nc2N1Cc1ccc(Cl)s1 (some centres unmarked) [UB-180674] | DC50 (PLK1; [6]): < 10 nM; DC50 (BRD4; [7]): < 10 nM

From patent US20210369853A1, “TARGETED PROTEASE DEGRADATION PLATFORM” (EUBULUS BIOTHERAPEUTICS INC., priority 2018, published 2021)
